Measured values taken from ChEMBL document CHEMBL1152361, “The application of phosphoramidate ProTide technology to the potent anti-HCV compound 4'-azidocytidine (R1479)” (Bioorg Med Chem Lett, 2009).

Assays:
Hepatitis C virus [1] = test: Antiviral activity against HCV Con1 GT1b by replicon assay; type: functional, organism-based, Hepacivirus hominis
Hepatitis C virus [2] = test: Antiviral activity against HCV Con1 GT1b at 100 uM by replicon assay; type: functional, Hepacivirus hominis

| Structure (SMILES) | EC50 (Hepatitis C virus [1]; Hepatitis C virus, Con1 GT1b) [µM] | also measured |
| --- | --- | --- |
| CC(C)OC(=O)CNP(=O)(OC[C@@]1(N=[N+]=[N-])O[C@@H](n2ccc(N)nc2=O)[C@H](O)[C@@H]1O)Oc1ccccc1 (stereo partly drawn) | – | EC50 (Hepatitis C virus [1]): 4.5 µM |
| CCOC(=O)[C@H](C)NP(=O)(OC[C@@]1(N=[N+]=[N-])O[C@@H](n2ccc(N)nc2=O)[C@H](O)[C@@H]1O)Oc1c(OC)cccc1OC (stereo partly drawn) | 4.1 | – |
| CCOC(=O)[C@@H]1CCCN1P(=O)(OC[C@@]1(N=[N+]=[N-])O[C@@H](n2ccc(N)nc2=O)[C@H](O)[C@@H]1O)Oc1ccccc1 (stereo partly drawn) | > 100 | – |
| CCOC(=O)[C@H](C)NP(=O)(OC[C@@]1(N=[N+]=[N-])O[C@@H](n2ccc(N)nc2=O)[C@H](O)[C@@H]1O)Oc1ccccc1 (stereo partly drawn) | 0.38 | – |
| CC(C)OC(=O)[C@H](Cc1ccccc1)NP(=O)(OC[C@@]1(N=[N+]=[N-])O[C@@H](n2ccc(N)nc2=O)[C@H](O)[C@@H]1O)Oc1ccccc1 (stereo partly drawn) | 2.9 | – |
| C[C@H](NP(=O)(OC[C@@]1(N=[N+]=[N-])O[C@@H](n2ccc(N)nc2=O)[C@H](O)[C@@H]1O)Oc1ccc(Cl)cc1)C(=O)OCc1ccccc1 (stereo partly drawn) | 6.2 | – |
| COc1ccccc1OP(=O)(N[C@@H](C)C(=O)OCc1ccccc1)OC[C@@]1(N=[N+]=[N-])O[C@@H](n2ccc(N)nc2=O)[C@H](O)[C@@H]1O (stereo partly drawn) | 2.3 | – |
| CCOC(=O)[C@H](CCSC)NP(=O)(OC[C@@]1(N=[N+]=[N-])O[C@@H](n2ccc(N)nc2=O)[C@H](O)[C@@H]1O)Oc1ccccc1 (stereo partly drawn) | 18 | – |
| COc1cccc(OP(=O)(N[C@@H](C)C(=O)OCc2ccccc2)OC[C@@]2(N=[N+]=[N-])O[C@@H](n3ccc(N)nc3=O)[C@H](O)[C@@H]2O)c1 (stereo partly drawn) | 8.8 | – |
| CCOC(=O)[C@@H](C)NP(=O)(OC[C@@]1(N=[N+]=[N-])O[C@@H](n2ccc(N)nc2=O)[C@H](O)[C@@H]1O)Oc1ccccc1 (stereo partly drawn) | 2.3 | – |
| CCCCCCCCCCCCOC(=O)[C@@H](C)NP(=O)(OC[C@@]1(N=[N+]=[N-])O[C@@H](n2ccc(N)nc2=O)[C@H](O)[C@@H]1O)Oc1ccccc1 (stereo partly drawn) | 30 | – |
| CCOC(=O)[C@H](CC(C)C)NP(=O)(OC[C@@]1(N=[N+]=[N-])O[C@@H](n2ccc(N)nc2=O)[C@H](O)[C@@H]1O)Oc1ccc(OC)cc1 (stereo partly drawn) | 9.3 | – |
| CCOC(=O)CCNP(=O)(OC[C@@]1(N=[N+]=[N-])O[C@@H](n2ccc(N)nc2=O)[C@H](O)[C@@H]1O)Oc1ccccc1 (stereo partly drawn) | – | inhibition at 100 µM (Hepatitis C virus [2]): 77%; IC50 (Hepatitis C virus [1]; Hepatitis C virus, Con1 GT1b): 47 µM |
| CCOC(=O)[C@H](CC(C)C)NP(=O)(OC[C@@]1(N=[N+]=[N-])O[C@@H](n2ccc(N)nc2=O)[C@H](O)[C@@H]1O)Oc1ccc(C)cc1 (stereo partly drawn) | 4.3 | – |
| C[C@@H](NP(=O)(OC[C@@]1(N=[N+]=[N-])O[C@@H](n2ccc(N)nc2=O)[C@H](O)[C@@H]1O)Oc1ccccc1)C(=O)OCc1ccccc1 (stereo partly drawn) | 2.2 | – |
| [N-]=[N+]=N[C@]1(COP(=O)(N[C@@H](Cc2ccccc2)C(=O)OCc2ccccc2)Oc2ccccc2)O[C@@H](n2ccc(N)nc2=O)[C@H](O)[C@@H]1O (stereo partly drawn) | – | inhibition at 100 µM (Hepatitis C virus [2]): 89%; IC50 (Hepatitis C virus [1]; Hepatitis C virus, Con1 GT1b): 7.7 µM |
| CC(C)C[C@@H](NP(=O)(OC[C@@]1(N=[N+]=[N-])O[C@@H](n2ccc(N)nc2=O)[C@H](O)[C@@H]1O)Oc1ccccc1)C(=O)OCc1ccccc1 (stereo partly drawn) | – | inhibition at 100 µM (Hepatitis C virus [2]): 88%; IC50 (Hepatitis C virus [1]; Hepatitis C virus, Con1 GT1b): 4.2 µM |
| C[C@H](NP(=O)(OC[C@@]1(N=[N+]=[N-])O[C@@H](n2ccc(N)nc2=O)[C@H](O)[C@@H]1O)Oc1cccc(Cl)c1)C(=O)OCc1ccccc1 (stereo partly drawn) | 3.7 | – |
| CCC(C)OC(=O)[C@H](C)NP(=O)(OC[C@@]1(N=[N+]=[N-])O[C@@H](n2ccc(N)nc2=O)[C@H](O)[C@@H]1O)Oc1ccccc1 (stereo partly drawn) | 0.62 | – |
| C[C@H](NP(=O)(OC[C@@]1(N=[N+]=[N-])O[C@@H](n2ccc(N)nc2=O)[C@H](O)[C@@H]1O)Oc1ccc2ccccc2c1)C(=O)OCc1ccccc1 (single isomer, unassigned; diastereomer 1) | – | EC50 (Hepatitis C virus [1]): 4.3 µM |
| CC(C)OC(=O)CNP(=O)(OC[C@@]1(N=[N+]=[N-])O[C@@H](n2ccc(N)nc2=O)[C@H](O)[C@@H]1O)Oc1ccccc1 (single isomer, unassigned; Diastereomer 1) | – | EC50 (Hepatitis C virus [1]): 15 µM |
| COc1ccc(OP(=O)(N[C@@H](C)C(=O)OCc2ccccc2)OC[C@@]2(N=[N+]=[N-])O[C@@H](n3ccc(N)nc3=O)[C@H](O)[C@@H]2O)cc1 (stereo partly drawn) | > 100 | – |
| C[C@H](NP(=O)(OC[C@@]1(N=[N+]=[N-])O[C@@H](n2ccc(N)nc2=O)[C@H](O)[C@@H]1O)Oc1ccccc1Cl)C(=O)OCc1ccccc1 (stereo partly drawn) | 3.5 | – |
| C[C@H](NP(=O)(OC[C@@]1(N=[N+]=[N-])O[C@@H](n2ccc(N)nc2=O)[C@H](O)[C@@H]1O)Oc1cccc2ccccc12)C(=O)OCc1ccccc1 (single isomer, unassigned; diastereomer 2) | 1.2 | – |
| C[C@H](NP(=O)(OC[C@@]1(N=[N+]=[N-])O[C@@H](n2ccc(N)nc2=O)[C@H](O)[C@@H]1O)Oc1ccc2ccccc2c1)C(=O)OCc1ccccc1 (single isomer, unassigned; diastereomer 2) | 2.9 | – |
| CCCCOC(=O)[C@@H](C)NP(=O)(OC[C@@]1(N=[N+]=[N-])O[C@@H](n2ccc(N)nc2=O)[C@H](O)[C@@H]1O)Oc1ccccc1 (stereo partly drawn) | 0.94 | – |
| C[C@@H](NP(=O)(OC[C@@]1(N=[N+]=[N-])O[C@@H](n2ccc(N)nc2=O)[C@H](O)[C@@H]1O)Oc1ccccc1)C(=O)OC(C)(C)C (stereo partly drawn) | > 100 | – |
| CC(C)OC(=O)C(C)(C)NP(=O)(OC[C@@]1(N=[N+]=[N-])O[C@@H](n2ccc(N)nc2=O)[C@H](O)[C@@H]1O)Oc1ccccc1 (stereo partly drawn) | 3.1 | – |

| Structure (SMILES) | EC50 (Hepatitis C virus [1]; Hepatitis C virus, Con1 GT1b) [µM] | also measured |
| --- | --- | --- |
| CC(C)C[C@H](NP(=O)(OC[C@@]1(N=[N+]=[N-])O[C@@H](n2ccc(N)nc2=O)[C@H](O)[C@@H]1O)Oc1ccccc1)C(=O)OC(C)C (stereo partly drawn) | > 100 | – |
| [N-]=[N+]=N[C@]1(CO)O[C@@H](n2ccc(N)nc2=O)[C@H](O)[C@@H]1O [4'-AZIDOCYTIDINE] | 1.28 | – |
| CC(C)(NP(=O)(OC[C@@]1(N=[N+]=[N-])O[C@@H](n2ccc(N)nc2=O)[C@H](O)[C@@H]1O)Oc1ccccc1)C(=O)OCc1ccccc1 (stereo partly drawn) | 9.2 | – |
| CCOC(=O)[C@H](Cc1ccccc1)NP(=O)(OC[C@@]1(N=[N+]=[N-])O[C@@H](n2ccc(N)nc2=O)[C@H](O)[C@@H]1O)Oc1ccccc1 (stereo partly drawn) | 11 | – |
| CCOC(=O)[C@H](C)NP(=O)(OC[C@@]1(N=[N+]=[N-])O[C@@H](n2ccc(N)nc2=O)[C@H](O)[C@@H]1O)Oc1ccc(C)cc1 (stereo partly drawn) | 2.9 | – |
| CCOC(=O)CN(C)P(=O)(OC[C@@]1(N=[N+]=[N-])O[C@@H](n2ccc(N)nc2=O)[C@H](O)[C@@H]1O)Oc1ccccc1 (stereo partly drawn) | – | inhibition at 100 µM (Hepatitis C virus [2]): 72%; IC50 (Hepatitis C virus [1]; Hepatitis C virus, Con1 GT1b): 48 µM |
| CC(C)OC(=O)[C@H](C)NP(=O)(OC[C@@]1(N=[N+]=[N-])O[C@@H](n2ccc(N)nc2=O)[C@H](O)[C@@H]1O)Oc1ccccc1 (stereo partly drawn) | 0.99 | – |
| CCCCOC(=O)[C@H](C)NP(=O)(OC[C@@]1(N=[N+]=[N-])O[C@@H](n2ccc(N)nc2=O)[C@H](O)[C@@H]1O)Oc1ccccc1 (stereo partly drawn) | 11 | – |
| C[C@H](NP(=O)(OC[C@@]1(N=[N+]=[N-])O[C@@H](n2ccc(N)nc2=O)[C@H](O)[C@@H]1O)Oc1ccccc1)C(=O)OC(C)(C)C (stereo partly drawn) | 0.72 | – |
| COC(=O)[C@H](C)NP(=O)(OC[C@@]1(N=[N+]=[N-])O[C@@H](n2ccc(N)nc2=O)[C@H](O)[C@@H]1O)Oc1ccccc1 (stereo partly drawn) | 3.1 | – |
| C[C@H](NP(=O)(OC[C@@]1(N=[N+]=[N-])O[C@@H](n2ccc(N)nc2=O)[C@H](O)[C@@H]1O)Oc1ccc(Cl)c(Cl)c1)C(=O)OCc1ccccc1 (stereo partly drawn) | 9.2 | – |
| [N-]=[N+]=N[C@]1(COP(=O)(NCC(=O)OCc2ccccc2)Oc2ccccc2)O[C@@H](n2ccc(N)nc2=O)[C@H](O)[C@@H]1O (stereo partly drawn) | 2.1 | – |
| CCOC(=O)C[C@H](NP(=O)(OC[C@@]1(N=[N+]=[N-])O[C@@H](n2ccc(N)nc2=O)[C@H](O)[C@@H]1O)Oc1ccccc1)C(=O)OCC (stereo partly drawn) | – | inhibition at 100 µM (Hepatitis C virus [2]): 88%; IC50 (Hepatitis C virus [1]; Hepatitis C virus, Con1 GT1b): 4.4 µM |
| C[C@H](NP(=O)(OC[C@@]1(N=[N+]=[N-])O[C@@H](n2ccc(N)nc2=O)[C@H](O)[C@@H]1O)Oc1cccc2ccccc12)C(=O)OCc1ccccc1 (stereo partly drawn) | – | EC50 (Hepatitis C virus [1]): 0.95 µM |
| CCOC(=O)[C@@H](NP(=O)(OC[C@@]1(N=[N+]=[N-])O[C@@H](n2ccc(N)nc2=O)[C@H](O)[C@@H]1O)Oc1ccccc1)[C@@H](C)CC (stereo partly drawn) | > 100 | – |
| Cc1ccc(OP(=O)(N[C@@H](C)C(=O)OCc2ccccc2)OC[C@@]2(N=[N+]=[N-])O[C@@H](n3ccc(N)nc3=O)[C@H](O)[C@@H]2O)cc1 (stereo partly drawn) | 0.51 | – |
| CCOC(=O)CC[C@H](NP(=O)(OC[C@@]1(N=[N+]=[N-])O[C@@H](n2ccc(N)nc2=O)[C@H](O)[C@@H]1O)Oc1ccccc1)C(=O)OCC (stereo partly drawn) | – | inhibition at 100 µM (Hepatitis C virus [2]): 74%; IC50 (Hepatitis C virus [1]; Hepatitis C virus, Con1 GT1b): 44 µM |
| C[C@H](NP(=O)(OC[C@@]1(N=[N+]=[N-])O[C@@H](n2ccc(N)nc2=O)[C@H](O)[C@@H]1O)Oc1ccccc1)C(=O)Oc1ccccc1 (stereo partly drawn) | 2.9 | – |
| CCOC(=O)C1(NP(=O)(OC[C@@]2(N=[N+]=[N-])O[C@@H](n3ccc(N)nc3=O)[C@H](O)[C@@H]2O)Oc2ccccc2)CCCC1 (stereo partly drawn) | – | inhibition at 100 µM (Hepatitis C virus [2]): 69%; IC50 (Hepatitis C virus [1]; Hepatitis C virus, Con1 GT1b): 56 µM |
| CC(C)[C@H](NP(=O)(OC[C@@]1(N=[N+]=[N-])O[C@@H](n2ccc(N)nc2=O)[C@H](O)[C@@H]1O)Oc1ccccc1)C(=O)OCc1ccccc1 (stereo partly drawn) | 5.6 | – |
| CCOC(=O)[C@H](CC(C)C)NP(=O)(OC[C@@]1(N=[N+]=[N-])O[C@@H](n2ccc(N)nc2=O)[C@H](O)[C@@H]1O)Oc1ccccc1 (stereo partly drawn) | 11 | – |
| CC(C)(C)OC(=O)[C@H](Cc1ccccc1)NP(=O)(OC[C@@]1(N=[N+]=[N-])O[C@@H](n2ccc(N)nc2=O)[C@H](O)[C@@H]1O)Oc1ccccc1 (stereo partly drawn) | – | inhibition at 100 µM (Hepatitis C virus [2]): 84%; IC50 (Hepatitis C virus [1]; Hepatitis C virus, Con1 GT1b): 6.7 µM |
| C[C@H](NP(=O)(OC[C@@]1(N=[N+]=[N-])O[C@@H](n2ccc(N)nc2=O)[C@H](O)[C@@H]1O)Oc1ccccc1)C(=O)OCc1ccccc1 (stereo partly drawn) | 6 | – |
| Cc1ccccc1OP(=O)(N[C@@H](C)C(=O)OCc1ccccc1)OC[C@@]1(N=[N+]=[N-])O[C@@H](n2ccc(N)nc2=O)[C@H](O)[C@@H]1O (stereo partly drawn) | 1.3 | – |
| C[C@H](NP(=O)(OC[C@@]1(N=[N+]=[N-])O[C@@H](n2ccc(N)nc2=O)[C@H](O)[C@@H]1O)Oc1ccc(Br)cc1)C(=O)OCc1ccccc1 (stereo partly drawn) | 6.5 | – |
| CCOC(=O)[C@H](CC(C)C)NP(=O)(OC[C@@]1(N=[N+]=[N-])O[C@@H](n2ccc(N)nc2=O)[C@H](O)[C@@H]1O)Oc1ccc(Cl)c(Cl)c1 (stereo partly drawn) | 2.3 | – |
| CCOC(=O)[C@H](CC(C)C)NP(=O)(OC[C@@]1(N=[N+]=[N-])O[C@@H](n2ccc(N)nc2=O)[C@H](O)[C@@H]1O)Oc1ccc(Cl)cc1 (stereo partly drawn) | 2.5 | – |
